Data as given in patent publication US20120020915A1, “Compounds and Methods for Treating Cancer and Diseases of the Central Nervous System” (QUEENS UNIVERSITY AT KINGSTON, priority 2007, published 2012).
Where a name gives a salt, the structure may show the parent alone. Read-outs that look alike come from different tables or passages of the source. One block for each compound: values may come before it.

Key:
HO-1 (rat spleen) = target: T1, HO-1 (rat spleen) (Rattus norvegicus, UniProt P06762); experiment: HO enzymatic activity, rat spleen microsomal fraction (CO formation from methemalbumin); format: biochemical
T1 construct: Spleen microsomes were used as a source of HO-1; from tissue; host or cells: spleen microsomal fraction of adult male Sprague-Dawley rats
T1 sequence (P06762 1-289): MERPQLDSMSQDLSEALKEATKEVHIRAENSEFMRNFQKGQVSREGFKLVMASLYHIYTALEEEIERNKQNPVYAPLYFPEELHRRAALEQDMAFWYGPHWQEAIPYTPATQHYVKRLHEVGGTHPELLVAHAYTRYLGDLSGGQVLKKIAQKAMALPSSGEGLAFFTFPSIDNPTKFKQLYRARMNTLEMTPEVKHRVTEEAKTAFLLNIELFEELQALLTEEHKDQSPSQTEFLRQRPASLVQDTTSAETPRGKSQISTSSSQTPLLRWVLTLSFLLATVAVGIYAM
Protocol: (§1) Incubations for HO activity analysis were done under conditions for which the rate of CO formation (pmol CO×min^−1×mg protein^−1) was linear with respect to time and microsomal protein concentration. Briefly, reaction mixtures (150 μL) consisting of 100 mM phosphate buffer (pH 7.4), 50 μM methemalbumin, and 1 mg/mL protein were pre-incubated with the inhibitors at final concentrations ranging from 0.1-100 μM for 10 minutes at 37° C. Reactions were initiated by adding NADPH at a final concentration of 1 mM and incubations were performed for an additional 15 minutes at 37° C.
(§2) Incubations for HO activity analysis were done under conditions for which the rate of CO formation (pmol CO/mg protein/minute) was linear with respect to time and microsomal protein concentration. Briefly, reaction mixtures (150 μL) consisting of 100 mM phosphate buffer (pH 7.4), 50 μM methemalbumin and 1 mg/mL protein were pre-incubated with the vehicle (ethanol or water in which the inhibitors were dissolved), or inhibitors at final concentrations ranging from 0.1-1000 μM for 10 minutes at 37° C. Reactions were initiated by adding β-NADPH at a final concentration of 1 mM and incubations were carried out for an additional 15 minutes at 37° C. Reactions were stopped by instantly freezing the reaction mixture on pulverized dry ice and CO formation was measured by gas chromatography using a TA 3000R Process Gas Analyzer (Trace Analytical/Ametek, Newark, Del., USA).
(§3) The values on the abscissa represent the decimal logarithm of the inhibitor's concentration (in μM), whereas the values of the activity on the ordinate are expressed as a percentage of the control experiments without inhibitor.
(§4) The IC50 values for the replicate experiments were employed to generate the reported standard deviation value.

HO-2 (rat brain) = target: T2, HO-2 (rat brain) (Rattus norvegicus, UniProt P23711); experiment: HO enzymatic activity, rat brain microsomal fraction (CO formation from methemalbumin); format: biochemical
T2 construct: brain microsomes were used as a source of HO-2; from tissue; host or cells: brain microsomal fraction of adult male Sprague-Dawley rats
T2 sequence (P23711 1-315): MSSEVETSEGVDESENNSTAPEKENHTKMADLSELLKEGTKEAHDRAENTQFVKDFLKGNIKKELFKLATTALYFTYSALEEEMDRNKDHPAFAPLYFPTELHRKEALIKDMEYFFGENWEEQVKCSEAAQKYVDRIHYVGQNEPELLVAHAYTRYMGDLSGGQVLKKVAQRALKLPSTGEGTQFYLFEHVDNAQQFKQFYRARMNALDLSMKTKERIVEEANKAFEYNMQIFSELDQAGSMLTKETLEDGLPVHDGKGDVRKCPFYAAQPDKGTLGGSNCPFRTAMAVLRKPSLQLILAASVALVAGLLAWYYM
Protocol: as §1, §2, §3, §4

[1] = average ± SD of replicate experiments, read-out: IC50 HO-1 (rat spleen/μM)
[2] = average ± SD of replicate experiments, read-out: IC50 HO-2 (rat brain)/μM)
[3] = CO formation from methemalbumin, mean ± SD of replicate experiments, read-out: IC50 HO-1 (rat spleen/μM)
[4] = CO formation from methemalbumin, mean ± SD of replicate experiments, read-out: IC50 HO-2 (rat brain)/μM)
[5] = IC50 HO-1 (rat spleen/μM), CO formation from methemalbumin, mean ± SD of replicate experiments
[6] = IC50 HO-2 (rat brain)/μM), CO formation from methemalbumin, mean ± SD of replicate experiments
[7] = IC50 HO-1 (rat spleen/μM), average ± SD of replicate experiments
[8] = IC50 HO-2 (rat brain)/μM), average ± SD of replicate experiments

IC50 (HO-1 (rat spleen); [1]): 21 ± 3 µM
IC50 (HO-2 (rat brain); [2]): > 100 µM
Structure (SMILES): NC[C@@H]1CO[C@@](CCc2ccccc2)(Cn2ccnc2)O1 [QC-190, {2-[2-(phenyl)-ethyl]-2-imidazol-1-ylmethyl-[1,3]dioxolan-4-yl}-methylamine dihydrochloride]

IC50 (HO-1 (rat spleen); [3]): 28 ± 15 µM
IC50 (HO-2 (rat brain); [4]): 29 ± 6 µM
Structure (SMILES): COc1ccc(OC[C@H]2CO[C@](CCc3ccc(Cl)cc3)(Cn3ccnc3)O2)cc1 [QC-8, (2S,4S)-2-[2-(4-chlorophenyl)ethyl]-2-[(1H-imidazol-1-yl)methyl]-4-[(4-methoxyphenyloxy)methyl]-1,3-dioxolane hydrochloride]

Structure (SMILES): O=C(Cn1ccnc1)c1ccc2ccccc2c1 [QC-162, 2-Imidazol-1-yl-1-napthalen-2-yl-ethanone hydrochloride]
IC50 (HO-1 (rat spleen); [1]): 1.9 ± 0.1 µM
IC50 (HO-2 (rat brain); [2]): 12 ± 0.05 µM

Structure (SMILES): Nc1cccc(SC[C@@H]2CO[C@](CCc3ccc(Cl)cc3)(Cn3ccnc3)O2)c1 [QC-7, (2S,4S)-2-[2-(4-chlorophenyl)ethyl]-2-[(1H-imidazol-1-yl)methyl]-4-[{(3-aminophenyl)thio}methyl]-1,3-dioxolane dihydrochloride]
IC50 (HO-1 (rat spleen); [5]): 1.5 ± 0.1 µM
IC50 (HO-2 (rat brain); [6]): 21 ± 1 µM

IC50 (HO-1 (rat spleen); [3]): > 100 µM
IC50 (HO-2 (rat brain); [4]): > 100 µM
Structure (SMILES): COC(=O)c1ncnn1CC(=O)CCc1ccccc1 [QC-136, 2-(2-Oxo-4-phenyl-butyl)-2H-[1,2,4]triazole-3-carboxylic acid methyl ester]

IC50 (HO-1 (rat spleen); [1]): > 200 µM
IC50 (HO-2 (rat brain); [2]): > 200 µM
Structure (SMILES): c1ccc2[nH]c(NC3CCC(c4cnc[nH]4)CC3)nc2c1 (stereo not drawn) [QC-149, (1H-Benzoimidazol-2-yl)-[4-(3H-imidazol-4-yl)-cyclohexyl]-amine dihydrochloride]

Structure (SMILES): Cc1ccc(S(=O)(=O)OC[C@H]2CO[C@@](CCc3ccc(Cl)cc3)(Cn3ccnc3)O2)cc1 [QC-21, (2R,4R)-2-[2-(4-chlorophenyl)ethyl]-2-[(1H-imidazol-1-yl)methyl]-4-[(p-toluenesulfonyloxy)methyl]-1,3-dioxolane]
IC50 (HO-1 (rat spleen); [5]): 0.8 ± 0.3 µM
IC50 (HO-2 (rat brain); [6]): 23 ± 10 µM

IC50 (HO-1 (rat spleen); [1]): > 100 µM
IC50 (HO-2 (rat brain); [2]): > 100 µM
Structure (SMILES): CS(=O)(=O)c1ncnn1CC(=O)CCc1ccccc1 [QC-156, 1-(5-Methanesulfonyl-[1,2,4]triazol-1-yl)-4-phenyl-butan-2-one]

Structure (SMILES): O=C(Cn1ccnc1)c1ccc([N+](=O)[O-])cc1 [QC-159, 2-Imidazol-1-yl-1-(4-nitro-phenyl)-ethanone hydrochloride]
IC50 (HO-1 (rat spleen); [7]): 2.5 ± 0.2 µM
IC50 (HO-2 (rat brain); [8]): > 100 µM

Structure (SMILES): CCOC(=O)c1nccn1CC(=O)CCc1ccccc1 [QC-110, 1-(2-Oxo-4-phenyl-butyl)-1H-imidazole-2-carboxylic acid ethyl ester hydrochloride]
IC50 (HO-1 (rat spleen); [5]): > 100 µM
IC50 (HO-2 (rat brain); [6]): > 100 µM

IC50 (HO-1 (rat spleen); [3]): > 100 µM
IC50 (HO-2 (rat brain); [4]): > 100 µM
Structure (SMILES): COc1cccc(-c2nnn[nH]2)c1 [QC-28, 5-(3-methoxyphenyl)-1H-tetrazole]

IC50 (HO-1 (rat spleen); [3]): > 100 µM
IC50 (HO-2 (rat brain); [4]): > 100 µM
Structure (SMILES): CSc1nccn1CC(=O)CCc1ccccc1 [QC-113, 1-(2-Methylsulfanyl-imidazol-1-yl)-4-phenyl-butan-2-one]

IC50 (HO-1 (rat spleen); [3]): 55 ± 2 µM
IC50 (HO-2 (rat brain); [4]): > 100 µM
Structure (SMILES): COC(=O)c1cncn1CC(=O)CCc1ccccc1 [QC-134, 3-(2-Oxo-4-phenyl-butyl)-3H-imidazole-4-carboxylic acid methyl ester]

Structure (SMILES): Nc1nc2cc(OCCCCN3CCCCC3)ccc2[nH]1 [QC-146, 5-(4-Piperidin-1-yl-butoxy)-1H-benzoimidazol-2-ylamine dihydrochloride 3/2 hydrate]
IC50 (HO-1 (rat spleen); [1]): > 100 µM
IC50 (HO-2 (rat brain); [2]): > 100 µM

Structure (SMILES): O=C(Cn1ccnc1)c1ccc(-c2ccccc2)cc1 [QC-166, 1-Biphenyl-4-yl-2-imidazol-1-yl-ethanone hydrochloride]
IC50 (HO-1 (rat spleen); [7]): 2.1 ± 0.7 µM
IC50 (HO-2 (rat brain); [8]): 3 ± 0.7 µM

Structure (SMILES): Cn1c(NCCc2c[nH]cn2)nc2ccccc21 [QC-147, [2-(1H-Imidazol-4-yl)-ethyl]-(1-methyl-1H-benzoimidazol-2-yl)-amine dihydrochloride]
IC50 (HO-1 (rat spleen); [7]): > 100 µM
IC50 (HO-2 (rat brain); [8]): > 100 µM

IC50 (HO-1 (rat spleen); [3]): 9 ± 2 µM
IC50 (HO-2 (rat brain); [4]): 145 ± 54 µM
Structure (SMILES): O=C(CCc1ccccc1)Cn1cnc(-c2ccccc2)c1 [QC-124, 4-Phenyl-1-(4-phenyl-imidazol-1-yl)-butan-2-one hydrochloride]

Structure (SMILES): N[C@@H](Cc1c[nH]cn1)C(=O)O [QC-68, L-histidine hydrochloride monohydrate, reference compound]
IC50 (HO-1 (rat spleen); [3]): > 100 µM
IC50 (HO-2 (rat brain); [4]): > 100 µM

Structure (SMILES): O=C(Cn1ccnc1)c1ccccc1 [QC-141, 2-Imidazol-1-yl-1-phenyl-ethanone hydrochloride]
IC50 (HO-1 (rat spleen); [7]): 28 ± 4 µM
IC50 (HO-2 (rat brain); [8]): > 100 µM

Structure (SMILES): O=C(CCn1ccnc1)c1ccccc1O [QC-75, 1-(2-hydroxyphenyl)-3-imidazol-1-yl-propan-1-one]
IC50 (HO-1 (rat spleen); [5]): 25 ± 12 µM
IC50 (HO-2 (rat brain); [6]): > 100 µM

Structure (SMILES): COc1ccc(CCC(=O)Cn2ccnc2)cc1 [QC-72, 1-(1H-imidazol-1-yl)-4-(4-methoxyphenyl)-2-butanone hydrochloride]
IC50 (HO-1 (rat spleen); [5]): 2.2 ± 0.9 µM
IC50 (HO-2 (rat brain); [6]): 29 ± 19 µM

Structure (SMILES): O=C(Cn1cncn1)c1ccc(Cl)cc1 [QC-158, 1-(4-Chlorophenyl)-2-[1,2,4]triazol-1-yl-ethanone hydrochloride]
IC50 (HO-1 (rat spleen); [7]): 2.2 ± 0.5 µM
IC50 (HO-2 (rat brain); [8]): 122 ± 0.1 µM

IC50 (HO-1 (rat spleen); [1]): > 100 µM
IC50 (HO-2 (rat brain); [2]): > 100 µM
Structure (SMILES): c1ccc2[nH]c(NCCCCCN3CCCCC3)nc2c1 [QC-144, (1H-Benzoimidazol-2-yl)-(5-piperidin-1-yl-pentyl)-amine]

IC50 (HO-1 (rat spleen); [3]): 42 ± 5 µM
IC50 (HO-2 (rat brain); [4]): 125 ± 22 µM
Structure (SMILES): O=C(CBr)CCc1ccc(Br)cc1 [QC-59, 1-bromo-4-(4-bromophenyl)butan-2-one]

IC50 (HO-1 (rat spleen); [1]): 382 µM
IC50 (HO-2 (rat brain); [2]): 251 µM
Structure (SMILES): O=C(CCc1ccc(O)cc1)Cn1ccnc1 [QC-206, 4-(4-Hydroxyphenyl)-1-(1H-imidazol-1-yl)butan-2-one hydrochloride]

Structure (SMILES): O=C(CCn1ccnc1)c1ccccc1 [QC-242, 3-(1H-Imidazol-1-yl)-1-phenyl-propan-1-one hydrochloride]
IC50 (HO-1 (rat spleen); [7]): 79 µM
IC50 (HO-2 (rat brain); [8]): > 100 µM

Structure (SMILES): c1ccc(C2(Cn3ccnc3)OCCO2)cc1 [QC-246, 1-(2-Phenyl-[1,3]dioxolan-2-ylmethyl)-1H-imidazole hydrochloride]
IC50 (HO-1 (rat spleen); [7]): 32 ± 3 µM
IC50 (HO-2 (rat brain); [8]): > 100 µM

Structure (SMILES): Cc1ccc(S(=O)(=O)OC[C@@H]2CO[C@](CCc3ccc(Cl)cc3)(Cn3ccnc3)O2)cc1 [QC-4, (2S,4S)-2-[2-(4-chlorophenyl)ethyl]-2-[(1H-imidazol-1-yl)methyl]-4-[(p-toluenesulfonyloxy)methyl]-1,3-dioxolane dihydrochloride]
IC50 (HO-1 (rat spleen); [5]): 19 ± 9 µM
IC50 (HO-2 (rat brain); [6]): 48 ± 6 µM

IC50 (HO-1 (rat spleen); [3]): 1.8 ± 0.5 µM
IC50 (HO-2 (rat brain); [4]): 7.1 ± 0.7 µM
Structure (SMILES): Oc1ccc(OC[C@H]2CO[C@@](CCc3ccc(Cl)cc3)(Cn3ccnc3)O2)cc1 [QC-46, (2R,4S)-4-{2-[2-(4-Chlorophenyl)ethyl]-2-imidazol-1-ylmethyl-[1,3]dioxolan-4-ylmethoxy}phenol hydrochloride]

IC50 (HO-1 (rat spleen); [3]): > 100 µM
IC50 (HO-2 (rat brain); [4]): > 100 µM
Structure (SMILES): O=C(CCc1ccccc1)Cn1nnc2ccccc21 [QC-131, 1-Benzotriazol-1-yl-4-phenyl-butan-2-one]

IC50 (HO-1 (rat spleen); [3]): > 100 µM
IC50 (HO-2 (rat brain); [4]): > 100 µM
Structure (SMILES): Nc1cc(Cl)ccc1-c1nnn[nH]1 [QC-29, 5-(2-amino-4-chlorophenyl)-1H-tetrazole]

Structure (SMILES): CCN1CCN(c2nc3ccccc3[nH]2)CC1 [QC-148, 2-(4-Ethyl-piperazin-1-yl)-1H-benzoimidazole dihydrochloride hemihydrate]
IC50 (HO-1 (rat spleen); [1]): > 100 µM
IC50 (HO-2 (rat brain); [2]): > 100 µM

Structure (SMILES): COc1ccc(CCC(O)Cn2ccnc2)cc1 (stereo not drawn) [QC-33, 4-(4-methoxyphenyl)-1-(1H-imidazol-1-yl)butan-2-ol hydrochloride]
IC50 (HO-1 (rat spleen); [5]): 0.7 ± 0.1 µM
IC50 (HO-2 (rat brain); [6]): 6 ± 4 µM
